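Cultured in 96-well plates, cells were exposed to test compound for 48 hours across five concentrations. Here, GI50 denotes the concentration required for 50% inhibition of growth. TGI: concentration producing complete growth inhibition.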
Columns and labels:
Experiment in all cases: inhibition of tumour cell growth, NCI panel, 48 h
EKVX NSCLC = system: EKVX NSCLC
U251 CNS = system: U251 CNS
COLO 205 colon = system: COLO 205 colon
OVCAR-5 ovarian = system: OVCAR-5 ovarian
SK-MEL-2 melanoma = system: SK-MEL-2 melanoma
NCI-H23 lung = system: NCI-H23 lung
HCT-116 colon = system: HCT-116 colon
LOX IMVI melanoma = system: LOX IMVI melanoma
NCI-H460 lung = system: NCI-H460 lung
K-562 leukemia = system: K-562 leukemia
M14 melanoma = system: M14 melanoma
BT-549 breast = system: BT-549 breast
MCF7 breast = system: MCF7 breast
SNB-75 CNS = system: SNB-75 CNS
OVCAR-4 ovarian = system: OVCAR-4 ovarian
HCT-15 colon = system: HCT-15 colon
KM12 colon = system: KM12 colon
SK-OV-3 ovarian = system: SK-OV-3 ovarian
SK-MEL-28 melanoma = system: SK-MEL-28 melanoma
HOP-92 NSCLC = system: HOP-92 NSCLC
SN12C renal = system: SN12C renal
SF-268 CNS = system: SF-268 CNS
HS 578T breast = system: HS 578T breast
NCI/ADR-RES ovarian = system: NCI/ADR-RES ovarian
HOP-62 NSCLC = system: HOP-62 NSCLC
DU-145 prostate = system: DU-145 prostate
UO-31 renal = system: UO-31 renal
NCI-H522 lung = system: NCI-H522 lung
SNB-19 CNS = system: SNB-19 CNS
786-0 renal = system: 786-0 renal
SR leukemia = system: SR leukemia
SW-620 colon = system: SW-620 colon
TK-10 renal = system: TK-10 renal
RXF 393 renal = system: RXF 393 renal
HL-60(TB) leukemia = system: HL-60(TB) leukemia
SF-539 CNS = system: SF-539 CNS
MOLT-4 leukemia = system: MOLT-4 leukemia
A498 renal = system: A498 renal
IGROV1 ovarian = system: IGROV1 ovarian
HCC-2998 colon = system: HCC-2998 colon
A549 NSCLC = system: A549 NSCLC
SK-MEL-5 melanoma = system: SK-MEL-5 melanoma
CCRF-CEM leukemia = system: CCRF-CEM leukemia
OVCAR-8 ovarian = system: OVCAR-8 ovarian
UACC-62 melanoma = system: UACC-62 melanoma
HT29 colon = system: HT29 colon
MDA-MB-435 = system: MDA-MB-435
RPMI-8226 leukemia = system: RPMI-8226 leukemia
UACC-257 melanoma = system: UACC-257 melanoma
SF-295 CNS = system: SF-295 CNS
MDA-MB-231 breast = system: MDA-MB-231 breast
PC-3 prostate = system: PC-3 prostate

Work on CC(=O)O[C@H](C[C@H](C(C)C)N(C)C(=O)[C@@H](NC(=O)[C@H]1CCCN1C)C(C)C)c1nc(C(=O)N[C@@H](Cc2ccccc2)C[C@H](C)C(=O)O)c(C)s1 yielded a GI50 (EKVX NSCLC) of 0.0044 µM, a TGI (EKVX NSCLC) greater than 16.7 µM and a GI50 (U251 CNS) of less than 0.00167 µM. For the same compound, the TGI (U251 CNS) was greater than 16.7 µM, the GI50 (COLO 205 colon) was 0.00197 µM and the TGI (COLO 205 colon) was 0.0255 µM. The GI50 (OVCAR-5 ovarian) was 0.00716 µM, the TGI (OVCAR-5 ovarian) was greater than 16.7 µM and the GI50 (SK-MEL-2 melanoma) was less than 0.00167 µM. It also gave a TGI (SK-MEL-2 melanoma) greater than 16.7 µM, a GI50 (NCI-H23 lung) of 0.00531 µM and a TGI (NCI-H23 lung) greater than 16.7 µM. The GI50 (HCT-116 colon) was less than 0.00167 µM, the TGI (HCT-116 colon) was greater than 16.7 µM and the GI50 (LOX IMVI melanoma) was less than 0.00167 µM. The TGI (LOX IMVI melanoma) was greater than 16.7 µM, the GI50 (NCI-H460 lung) was less than 0.00167 µM and the TGI (NCI-H460 lung) was greater than 16.7 µM. The GI50 (K-562 leukemia) was less than 0.00167 µM, the TGI (K-562 leukemia) was greater than 16.7 µM and the GI50 (M14 melanoma) was less than 0.00167 µM. It also gave a TGI (M14 melanoma) greater than 16.7 µM, a GI50 (BT-549 breast) of less than 0.00167 µM and a TGI (BT-549 breast) of 0.151 µM. The GI50 (MCF7 breast) was less than 0.00167 µM, the TGI (MCF7 breast) was greater than 16.7 µM and the GI50 (SNB-75 CNS) was less than 0.00167 µM. The TGI (SNB-75 CNS) was greater than 16.7 µM, the GI50 (OVCAR-4 ovarian) was 0.0773 µM and the TGI (OVCAR-4 ovarian) was greater than 16.7 µM. It also gave a GI50 (HCT-15 colon) of 0.00772 µM, a TGI (HCT-15 colon) greater than 16.7 µM and a GI50 (KM12 colon) of less than 0.00167 µM. For the same compound, the TGI (KM12 colon) was greater than 16.7 µM, the GI50 (SK-OV-3 ovarian) was 0.00203 µM and the TGI (SK-OV-3 ovarian) was greater than 16.7 µM. For the same compound, the GI50 (SK-MEL-28 melanoma) was 0.00557 µM, the TGI (SK-MEL-28 melanoma) was greater than 16.7 µM and the GI50 (HOP-92 NSCLC) was 12.4 µM. It also gave a TGI (HOP-92 NSCLC) greater than 16.7 µM, a GI50 (SN12C renal) of less than 0.00167 µM and a TGI (SN12C renal) greater than 16.7 µM. For the same compound, the GI50 (SF-268 CNS) was less than 0.00167 µM, the TGI (SF-268 CNS) was greater than 16.7 µM and the GI50 (HS 578T breast) was less than 0.00167 µM. It also gave a TGI (HS 578T breast) greater than 16.7 µM, a GI50 (NCI/ADR-RES ovarian) of 0.102 µM and a TGI (NCI/ADR-RES ovarian) greater than 16.7 µM. For the same compound, the GI50 (HOP-62 NSCLC) was less than 0.00167 µM, the TGI (HOP-62 NSCLC) was greater than 16.7 µM and the GI50 (DU-145 prostate) was 0.00224 µM. The TGI (DU-145 prostate) was greater than 16.7 µM, the GI50 (UO-31 renal) was 0.011 µM and the TGI (UO-31 renal) was greater than 16.7 µM. For the same compound, the GI50 (NCI-H522 lung) was less than 0.00167 µM, the TGI (NCI-H522 lung) was less than 0.00167 µM and the GI50 (SNB-19 CNS) was less than 0.00167 µM. The TGI (SNB-19 CNS) was greater than 16.7 µM, the GI50 (786-0 renal) was 0.00441 µM and the TGI (786-0 renal) was greater than 16.7 µM. It also gave a GI50 (SR leukemia) of less than 0.00167 µM, a TGI (SR leukemia) greater than 16.7 µM and a GI50 (SW-620 colon) of less than 0.00167 µM. The TGI (SW-620 colon) was greater than 16.7 µM, the GI50 (TK-10 renal) was greater than 16.7 µM and the TGI (TK-10 renal) was greater than 16.7 µM. For the same compound, the GI50 (RXF 393 renal) was less than 0.00167 µM, the TGI (RXF 393 renal) was greater than 16.7 µM and the GI50 (HL-60(TB) leukemia) was less than 0.00167 µM. It also gave a TGI (HL-60(TB) leukemia) of less than 0.00167 µM, a GI50 (SF-539 CNS) of less than 0.00167 µM and a TGI (SF-539 CNS) of 0.0256 µM. For the same compound, the GI50 (MOLT-4 leukemia) was less than 0.00167 µM, the TGI (MOLT-4 leukemia) was greater than 16.7 µM and the GI50 (A498 renal) was less than 0.00167 µM. It also gave a TGI (A498 renal) of 0.00956 µM, a GI50 (IGROV1 ovarian) of 0.00241 µM and a TGI (IGROV1 ovarian) greater than 16.7 µM. For the same compound, the GI50 (HCC-2998 colon) was 0.00252 µM, the TGI (HCC-2998 colon) was greater than 16.7 µM and the GI50 (A549 NSCLC) was 0.0155 µM. The TGI (A549 NSCLC) was greater than 16.7 µM, the GI50 (SK-MEL-5 melanoma) was less than 0.00167 µM and the TGI (SK-MEL-5 melanoma) was 0.0243 µM. The GI50 (CCRF-CEM leukemia) was less than 0.00167 µM, the TGI (CCRF-CEM leukemia) was greater than 16.7 µM and the GI50 (OVCAR-8 ovarian) was 0.0033 µM. For the same compound, the TGI (OVCAR-8 ovarian) was greater than 16.7 µM, the GI50 (UACC-62 melanoma) was less than 0.00167 µM and the TGI (UACC-62 melanoma) was greater than 16.7 µM. The GI50 (HT29 colon) was less than 0.00167 µM, the TGI (HT29 colon) was greater than 16.7 µM and the GI50 (MDA-MB-435) was less than 0.00167 µM. For the same compound, the TGI (MDA-MB-435) was less than 0.00167 µM, the GI50 (RPMI-8226 leukemia) was less than 0.00167 µM and the TGI (RPMI-8226 leukemia) was greater than 16.7 µM. For the same compound, the GI50 (UACC-257 melanoma) was greater than 16.7 µM, the TGI (UACC-257 melanoma) was greater than 16.7 µM and the GI50 (SF-295 CNS) was less than 0.00167 µM. The TGI (SF-295 CNS) was greater than 16.7 µM, the GI50 (MDA-MB-231 breast) was 0.00292 µM and the TGI (MDA-MB-231 breast) was greater than 16.7 µM. It also gave a GI50 (PC-3 prostate) of less than 0.00167 µM and a TGI (PC-3 prostate) greater than 16.7 µM.

Source: PubChem BioAssay (NCI)
